Reference: patent US8309590B2, “Triazol compounds for treating biofilm formation” (Novartis AG, priority 2007, dated 2012)

Key:
P. aeruginosa = experiment: planktonic growth in borosilicate glass tube model (OD 570 nm); format: cell-based, Pseudomonas aeruginosa
Experimental: Growth with or without Compound I, e.g. at concentrations achieved in peripheral blood, under aerobic and anaerobic conditions with no added iron, 10, 30 and 50 μM iron. […] The effect of bacterial growth is determined using a standard method that involves inoculation of aliquots, e.g. 500 μL, of around 10^6 bacteria in minimal media with succinate into borosilicate glass tubes, e.g. 12×75 mm, that are them incubated under aerobic and anaerobic conditions, e.g. at 37° C. Each experiment is undertaken in triplicate and each borosilicate tube is removed at regular intervals, e.g. 0, 4, 8, 12, 16, 20 and 24 hours and the optical density at 570 nm of the culture used as an indicator of the level of growth. Anaerobic culture conditions are generated using the Anaerogen™ (Oxoid) system. For anaerobic experiments, parallel cultures are set up so that cultures are not transiently exposed to oxygen, i.e. seven parallel cultures to allow sampling at the required times. Different concentrations of Compound I are assessed for their effect on aerobic and anaerobic (A) growth and (B) biofilm levels. Medium used is MMS supplemented with 0 or 10 μM FeCl3, as indicated (37° C., 24 h). Values shown represent the mean±SD of one representative experiment with 3 tubes per experiment. Different concentrations of Compound I are assessed for their effect on aerobic and anaerobic (A) growth and (B) biofilm levels. Medium used is MMS supplemented with 10 μM FeCl3 (37° C., 24 h). […] The effects of Compound I on planktonic growth and biofilm development re assessed in the short-term borosilicate glass tube biofilm model. In this model, a biofilm is grown on a glass surface, and this is subsequently stained and solubilized. The optical density (OD: 570 nm) of the solution corresponds with the level of biofilm development. Using this model, bacterial growth and biofilm levels are determined after incubation (24 h, 37° C.) in minimal medium supplemented with succinate (MMS)+10 μM FeCl3 (aerobic and anaerobic atmospheres).

P. aeruginosa biofilm = experiment: short-term borosilicate glass tube biofilm model (OD 570 nm); format: cell-based, Pseudomonas aeruginosa
Experimental: For this purpose, two short-term biofilm models relevant for the early stages of biofilm formation are used: borosilicate tubes and cover-slip method. In both models, the biofilm growth is studied with or without Compound I under either aerobic or anaerobic conditions and with or without added iron, i.e. 0, 10, 30 and 50 μM iron. The anti-biofilm effects of Compound I are looked at according to the standard methods, i.e. optical density, confocal imaging software, […] program, to allow analysis of biofilm structure in a 3 dimensional perspective. The imaging system and use of BacLight LIVE/DEAD staining (Molecular Probes) in the cover-slip experiments allow to look at the effects on both bacterial microcolonies and biofilm structure. Different concentrations of Compound I are assessed for their effect on aerobic and anaerobic (A) growth and (B) biofilm levels. Medium used is MMS supplemented with 0 or 10 μM FeCl3, as indicated (37° C., 24 h). Values shown represent the mean±SD of one representative experiment with 3 tubes per experiment. Different concentrations of Compound I are assessed for their effect on aerobic and anaerobic (A) growth and (B) biofilm levels. Medium used is MMS supplemented with 10 μM FeCl3 (37° C., 24 h). […] The effect of Compound I (1339 μM) on biofilm development in different iron concentrations, without Compound I (black columns) and with Compound I, 1339 μM (grey columns). […] The effects of Compound I on planktonic growth and biofilm development re assessed in the short-term borosilicate glass tube biofilm model. In this model, a biofilm is grown on a glass surface, and this is subsequently stained and solubilized. The optical density (OD: 570 nm) of the solution corresponds with the level of biofilm development. Using this model, bacterial growth and biofilm levels are determined after incubation (24 h, 37° C.) in minimal medium supplemented with succinate (MMS)+10 μM FeCl3 (aerobic and anaerobic atmospheres). […] It is investigated whether Compound I is impairing anaerobic biofilm development by directly reducing the level of iron in the medium, or whether it is acting by an iron-independent mechanism. Compound I at a concentration of 1339 μM is tested to see if it continued to impair anaerobic biofilm development as the concentration of iron is increased in the culture medium.

[1] = system: P. aeruginosa strain PAO1; experiment: MIC of tobramycin and colistin with and without Compound I; format: cell-based, Pseudomonas aeruginosa; conditions: Compound I 1339 μM, MMS + 10 μM FeCl3, aerobic and anaerobic atmospheres
Experimental: The minimal inhibitory concentrations (MICs) of the aminoglycosides gentamycin and tobramycin are determined under aerobic and anaerobic conditions in the presence of no added iron or 30 μM iron, with or without Compound I, e.g. and/or with varying concentrations of Compound I). MICs are determined in MMS+10 μM FeCl3 supplemented with Compound I (1339 μM) (solid line) and without Compound I (dashed line). Values shown represent the mean±SD of a representative experiment with each condition tested in duplicate. The […] inhibitory concentrations (MICS) of two antibiotics commonly used antibiotics to treat CF individuals, tobramycin and colistin, are tested against P. aeruginosa. This is done in MMS+10 μM FeCl3 with and without Compound I (1339 μM) under aerobic and anaerobic atmospheres (FIG. 4).

[2] = system: phospholipase C production by P. aeruginosa; experiment: virulence factor production: phospholipase C; format: cell-based, Pseudomonas aeruginosa; conditions: Compound I 1339 μM, MMS + 10 μM FeCl3, anaerobic, 24 h
[3] = system: exotoxin A (ETA) production by P. aeruginosa; experiment: virulence factor production: exotoxin A; format: cell-based, Pseudomonas aeruginosa; conditions: Compound I 1339 μM, MMS + 10 μM FeCl3, anaerobic, 24 h
solubility in MMS medium = format: physicochemical; conditions: MMS medium (pH 7.0)
[4] = Compound I 0-100 μM, aerobic, MMS + 10 μM FeCl3, 24 h, 37° C.
[5] = Compound I 0-100 μM, anaerobic, MMS + 10 μM FeCl3, 24 h, 37° C.
[6] = higher concentration of Compound I (up to 6695 μM, via PEG 400), aerobic
[7] = higher concentration of Compound I (up to 6695 μM, via PEG 400), anaerobic, P<0.05

Which results are given for O=C(O)c1ccc(-n2nc(-c3ccccc3O)nc2-c2ccccc2O)cc1 [Compound I, 4-[3,5-Bis-(2-hydroxyphenyl)-[1,2,4]-triazol-1-yl]benzoic acid]?
effect on aerobic growth (P. aeruginosa; [4]): does not impair; effect on anaerobic growth (P. aeruginosa; [5]): does not impair; effect on growth, higher concentration, aerobic (P. aeruginosa; [6]): not under aerobic conditions; effect on growth, higher concentration, anaerobic (P. aeruginosa; [7]): significantly impair; effect on aerobic biofilm development (P. aeruginosa biofilm; [4]): does not impair; effect on anaerobic biofilm development (P. aeruginosa biofilm; [5]): does not impair; impairment of anaerobic biofilm development as iron concentration is increased (P. aeruginosa biofilm; Compound I 1339 μM, anaerobic, increasing iron levels in culture medium): becomes less effective; effect on biofilm levels, higher concentration, aerobic (P. aeruginosa biofilm; [6]): not under aerobic conditions; effect on biofilm levels, higher concentration, anaerobic (P. aeruginosa biofilm; [7]): significantly impair; effect on MIC of colistin [1]: does not alter the MIC; effect on MIC of tobramycin [1]: does not alter the MIC; effect on iron-induced increase of phospholipase C production [2]: increase is negated; effect on iron-induced increase of exotoxin A (ETA) production [3]: increase is negated; solubility in MMS medium (solubility in MMS medium): low solubility
